Measured values reported in ChEMBL document CHEMBL4373693, “Virtual Screening Approach and Investigation of Structure-Activity Relationships To Discover Novel Bacterial Topoisomerase Inhibitors Targeting Gram-Positive and Gram-Negative Pathogens” (J Med Chem, 2019).
Converted amounts (≈) assume the structure as drawn.

Assays:
Format in all cases: functional
Enterococcus faecalis [1] = assay: Antibacterial activity against vancomycin and teicoplanin-resistant Enterococcus faecalis APV 00409 after 16 to 24 hrs by broth microdilution method
Enterococcus faecalis [2] = assay: Antibacterial activity against vancomycin-sensitive Enterococcus faecalis APV 00623 after 16 to 24 hrs by broth microdilution method
Haemophilus influenzae [3] = assay: Antibacterial activity against quinolone-sensitive Haemophilus influenzae H128 after 16 to 24 hrs by broth microdilution method
Klebsiella pneumoniae = assay: Antibacterial activity against quinolone-sensitive Klebsiella pneumoniae ATCC 700603 after 16 to 24 hrs by broth microdilution method
Enterococcus faecium [4] = assay: Antibacterial activity against Enterococcus faecium APV 00627 after 16 to 24 hrs by broth microdilution method
Staphylococcus aureus [5] = assay: Antibacterial activity against Staphylococcus aureus BAA-1720 after 16 to 24 hrs by broth microdilution method
Enterococcus faecium [6] = assay: Antibacterial activity against vancomycin and teicoplanin-resistant Enterococcus faecium APV 00424 after 16 to 24 hrs by broth microdilution method
Enterococcus faecalis [7] = assay: Antibacterial activity against Enterococcus faecalis ATCC 29212 after 16 to 24 hrs by broth microdilution method
Neisseria gonorrhoeae = assay: Antibacterial activity against Neisseria gonorrhoeae ATCC 19424 after 16 to 24 hrs by broth microdilution method
Enterococcus faecium [8] = assay: Antibacterial activity against vancomycin resistant and teicoplanin sensitive Enterococcus faecium APV 00420 after 16 to 24 hrs by broth microdilution method
Enterococcus faecalis [9] = assay: Antibacterial activity against vancomycin-sensitive Enterococcus faecalis APV 00406 after 16 to 24 hrs by broth microdilution method
Enterococcus faecium [10] = assay: Antibacterial activity against vancomycin and teicoplanin-resistant Enterococcus faecium APV 00422 after 16 to 24 hrs by broth microdilution method
Staphylococcus aureus [11] = assay: Antibacterial activity against Staphylococcus aureus ATCC 29213 in presence of 50% human serum after 16 to 24 hrs by broth microdilution method
Enterococcus faecalis [12] = assay: Antibacterial activity against vancomycin-sensitive Enterococcus faecalis APV 00404 after 16 to 24 hrs by broth microdilution method
Enterococcus faecium [13] = assay: Antibacterial activity against Enterococcus faecium APV 00626 after 16 to 24 hrs by broth microdilution method
Haemophilus influenzae [14] = assay: Antibacterial activity against quinolone-sensitive Haemophilus influenzae ATCC 49766 after 16 to 24 hrs by broth microdilution method
Enterococcus faecium [15] = assay: Antibacterial activity against vancomycin resistant and teicoplanin sensitive Enterococcus faecium APV 00553 after 16 to 24 hrs by broth microdilution method
Staphylococcus aureus [16] = assay: Antibacterial activity against Staphylococcus aureus BAA-1720 in presence of 50% human serum after 16 to 24 hrs by broth microdilution method
Staphylococcus aureus [17] = assay: Antibacterial activity against Staphylococcus aureus ATCC 29213 after 16 to 24 hrs by broth microdilution method
Enterococcus faecalis [18] = assay: Antibacterial activity against vancomycin and teicoplanin-resistant Enterococcus faecalis APV 00408 after 16 to 24 hrs by broth microdilution method
Escherichia coli = assay: Antibacterial activity against Escherichia coli
Staphylococcus aureus [19] = assay: Antibacterial activity against Staphylococcus aureus

SMILES	MIC (Enterococcus faecalis [1]) [µg/mL]	MIC (Enterococcus faecalis [2]) [µg/mL]	MIC (Haemophilus influenzae [3]) [µg/mL]	MIC (Klebsiella pneumoniae) [µg/mL]	MIC (Enterococcus faecium [4]) [µg/mL]	MIC (Enterococcus faecium [6]) [µg/mL]	MIC (Enterococcus faecalis [7]) [µg/mL]	MIC (Enterococcus faecium [8]) [µg/mL]	MIC (Enterococcus faecalis [9]) [µg/mL]	MIC (Enterococcus faecium [10]) [µg/mL]	MIC (Enterococcus faecalis [12]) [µg/mL]	MIC (Enterococcus faecium [13]) [µg/mL]	MIC (Haemophilus influenzae [14]) [µg/mL]	MIC (Enterococcus faecium [15]) [µg/mL]	MIC (Enterococcus faecalis [18]) [µg/mL]	further results
O=C(O)c1cn(C2CC2)c2cc(N3CCNCC3)c(F)cc2c1=O [CIPROFLOXACIN]	32 (≈ 96.6 µM)	2 (≈ 6.04 µM)	0.008 (≈ 0.0241 µM)	0.125 (≈ 0.377 µM)	4 (≈ 12.1 µM)	> 128	1 (≈ 3.02 µM)	> 32	64 (≈ 193 µM)	128 (≈ 386 µM)	2 (≈ 6.04 µM)	16 (≈ 48.3 µM)	0.015 (≈ 0.0453 µM)	128 (≈ 386 µM)	64 (≈ 193 µM)	MIC (Staphylococcus aureus [5]): 4 to 64 µg/mL (≈ 12.1 to 193 µM); MIC (Neisseria gonorrhoeae): ≤ 0.06 µg/mL; MIC (Staphylococcus aureus [11]): 0.25 µg/mL; MIC (Staphylococcus aureus [16]): > 4 µg/mL; MIC (Staphylococcus aureus [17]): 0.25 to 0.5 µg/mL (≈ 0.754 to 1.51 µM)
O=c1ccc2ncc(=O)n3c2n1C[C@H]3CN1CCC(NCc2cc3c(cn2)OCCC3)CC1 [GEPOTIDACIN]	–	–	–	–	–	–	–	–	–	–	–	–	–	–	–	MIC90 (Escherichia coli): 4 µg/mL (≈ 8.92 µM); MIC90 (Staphylococcus aureus [19]): 0.5 µg/mL (≈ 1.11 µM)
CN[C@H](CC(C)C)C(=O)N[C@H]1C(=O)N[C@@H](CC(N)=O)C(=O)N[C@H]2C(=O)N[C@H]3C(=O)N[C@H](C(=O)N[C@H](C(=O)O)c4cc(O)cc(O)c4-c4cc3ccc4O)[C@H](O)c3ccc(c(Cl)c3)Oc3cc2cc(c3O[C@@H]2O[C@H](CO)[C@@H](O)[C@H](O)[C@H]2O[C@H]2C[C@](C)(N)[C@H](O)[C@H](C)O2)Oc2ccc(cc2Cl)[C@H]1O [VANCOMYCIN]	> 128	2 (≈ 1.38 µM)	> 8	> 8	> 128	> 128	4 (≈ 2.76 µM)	> 8	1 (≈ 0.69 µM)	> 128	2 (≈ 1.38 µM)	> 128	> 8	> 128	> 128	–
